Laboratory results from patent US20100204109A1, “USE OF C-TYPE NATRIURETIC PEPTIDE, ALONE OR IN COMBINATION WITH NEUROPEPTIDE AF, AS A THERAPEUTIC AGENT” (priority 2007, published 2010).
Ends that are not written are not given here.

Tests used:
HUVEC = assay: Endothelial tube formation assay; assay type: cell-based, human; conditions: 10 micrograms per ml, 20 hours, average tubule length
Excerpt: Positive control was vehicle only. […] Raw data were expressed as average tubule lenghs in pixels±standard deviation.

[1] = system: hepatitis B virus (HBV) ayw strain; assay: HBV experimental assay system, HepG2-2.2.15, secreted HBV DNA by TaqMan PCR; assay type: cell-based; conditions: 10 micrograms per ml, six days, HBV DNA in supernatant
HCMV strain AD169 = assay: HCMV plaque formation assay in MRC-5 cells; conditions: for inhibition of HCMV plaque formation as compared to the virus control experiment: 10 micrograms per ml, MRC-5 cells, 7-10 days
[2] = system: spleen cells of Ovalbumin-immunized Balb/c mice; assay: Th1/Th2 cytokine profiling assay; assay type: cell-based, mouse; conditions: 10 micrograms per ml; Ovalbumin restimulation; 72 hours supernatant
Excerpt: Results from Th1/Th2 Cytokine assay:

Row | Molecule | inhibition of the tube formation of human endothelial cells (HUVEC) | inhibition of HBV replication as compared to the virus control infection [1] | inhibition of HCMV plaque formation as compared to the virus control experiment (HCMV strain AD169) | antiviral activity of positive control compounds (HIV-1IIIB) | other results
1 | Asp-Leu-Arg-Val-Asp-Thr-Lys-Ser-Arg-Ala-Ala-Trp-Ala-Arg-Leu-Leu-Gln-Glu-His-Pro-Asn-Ala-Arg-Lys-Tyr-Lys-Gly-Ala-Asn-Lys-Lys-Gly-Leu-Ser-Lys-Gly-Cys-Phe-Gly-Leu-Lys-Leu-Asp-Arg-Ile-Gly-Ser-Met-Ser-Gly-Leu-Gly-Cys-OH (DLRVDTKSRAAWARLLQEHPNARKYKGANKKGLSKGCFGLKLDRIGSMSGLGC-OH; cysteine pairing not given here) [Peptide 1] | 34% | 65.7% | did not inhibit |  | 
2 | Nc1nc(O)c2ncn(COC(CO)CO)c2n1 [Ganciclovir, reference compound] |  |  |  |  | antiviral activity of positive control compound (HCMV strain AD169; positive control, HCMV AD169 in MRC-5 cells): expected levels of antiviral activity
3 | Cc1cn([C@H]2C[C@H](N=[N+]=[N-])[C@@H](CO)O2)c(=O)[nH]c1=O [AZT] |  |  |  | expected levels of antiviral activity | 
4 | Ala-Gly-Glu-Gly-Leu-Asn-Ser-Gln-Phe-Trp-Ser-Leu-Ala-Ala-Pro-Gln-Arg-Phe-NH2 (AGEGLNSQFWSLAAPQRF-NH2) [Peptide 2] | did not inhibit | 42.6% | did not inhibit |  | IFNγ spleen cells; TH1 response (% of control) [2]: 84.8 % of control; IL-2 spleen cells (% of control) [2]: 0.0 % of control; IL-4 spleen cells; TH2 response (% of control) [2]: 0.0 % of control; IL-5 spleen cells; TH2 response (% of control) [2]: 52.2 % of control; TNF-a spleen cells; TH1 response (% of control) [2]: 92.1 % of control
5 | CC(C)(C)NC(=O)[C@@H]1CN(Cc2cccnc2)CCN1C[C@@H](O)C[C@@H](Cc1ccccc1)C(=O)N[C@H]1c2ccccc2C[C@H]1O [indinavir] |  |  |  | expected levels of antiviral activity | 
